Data set [1] concerns the target T1, AR in MDA-PCA-2B (L702H\T878A) cells (Homo sapiens, UniProt P10275, L702H/T878A).
T1 construct: Assay on degradation activity for AR in MDA-PCA-2B (L702H\T878A) cells; endogenous in cells; host or cells: MDA-PCA-2B cells
T1 sequence (P10275 1-920 L702H/T878A): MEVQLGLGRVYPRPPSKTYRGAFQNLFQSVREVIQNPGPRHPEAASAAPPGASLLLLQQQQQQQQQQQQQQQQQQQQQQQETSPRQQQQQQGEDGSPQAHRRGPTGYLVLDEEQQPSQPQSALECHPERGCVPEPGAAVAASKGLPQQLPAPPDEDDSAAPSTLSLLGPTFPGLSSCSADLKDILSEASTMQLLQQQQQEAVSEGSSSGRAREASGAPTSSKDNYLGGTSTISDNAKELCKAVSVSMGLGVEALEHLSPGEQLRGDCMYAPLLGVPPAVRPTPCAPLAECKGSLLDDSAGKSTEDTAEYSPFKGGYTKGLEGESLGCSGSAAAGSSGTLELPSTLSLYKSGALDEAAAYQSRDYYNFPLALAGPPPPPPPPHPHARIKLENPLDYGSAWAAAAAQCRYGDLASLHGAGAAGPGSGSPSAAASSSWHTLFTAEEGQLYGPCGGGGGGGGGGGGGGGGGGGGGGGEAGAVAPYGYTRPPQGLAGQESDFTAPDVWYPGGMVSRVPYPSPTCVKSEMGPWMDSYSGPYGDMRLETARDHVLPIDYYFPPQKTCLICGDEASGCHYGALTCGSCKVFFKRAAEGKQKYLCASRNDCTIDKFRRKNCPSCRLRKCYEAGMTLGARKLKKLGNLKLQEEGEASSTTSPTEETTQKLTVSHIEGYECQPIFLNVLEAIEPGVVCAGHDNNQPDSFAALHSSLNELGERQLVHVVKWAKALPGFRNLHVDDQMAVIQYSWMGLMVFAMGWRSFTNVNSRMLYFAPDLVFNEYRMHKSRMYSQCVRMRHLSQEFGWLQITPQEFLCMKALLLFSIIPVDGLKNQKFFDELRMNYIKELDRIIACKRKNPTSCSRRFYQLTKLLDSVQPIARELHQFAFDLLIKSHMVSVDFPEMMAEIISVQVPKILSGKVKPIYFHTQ
Briefly: Assay on degradation activity for AR in MDA-PCA-2B (L702H\T878A) cells (HTRF). It is filed as cell-based. The settings on record: 24 h; for DC50: AR degradation; for Dmax: maximum degradation rate. As for the experimental part:
The detection was carried out using the HTRF HUMAN ANDROGEN RECEPTOR DETECTION KIT (cisbio, 64ANDRPEG), 4× Supplemented Lysis buffer was prepared using the Blocking reagent stock solution (100×) and Lysis buffer stock solution (4×), and 1× Supplemented Lysis buffer was prepared using the 4× Supplemented Lysis buffer and ddH2O. Premixed antibody solutions were prepared using Detection buffer, Androgen Receptor Eu Cryptate antibody, and Androgen Receptor d2 antibody.
The cells were cultured overnight in a cell incubator. […] After the cells were oscillated for 40 min at room temperature, 16 µL of the cell lysis buffer was added to a 384-well plate, the Premixed antibody solutions were added at 4 µL/well, and the mixture was left to stand at 25 °C for 2 h. […]

Data set [2] relates to VCaP cells. Description: Assay on inhibitory activity for VCaP cell proliferation (CCK-8). The settings on record: Homo sapiens, 168 h. It is filed as cell-based.
The nature of data set [3]: In vitro liver microsome stability, human. Format: in vitro ADME. The settings on record: human liver microsomes 0.5 mg/mL, 37 °C, NADPH. The protocol:
(§1) Liver microsome incubation samples were prepared by mixing a PBS buffer (pH 7.4), a liver microsome solution (0.5 mg/mL), a test compound, and an NADPH + MgCl2 solution, followed by incubation at 37 °C and 300 rpm for 1 h. Zero-hour samples were prepared by mixing a PBS buffer (pH 7.4), a liver microsome solution (0.5 mg/mL), and a test compound. […]

Data set [4] in a line: In vitro liver microsome stability, mouse. Format: in vitro ADME. The settings on record: mouse liver microsomes 0.5 mg/mL, 37 °C, NADPH. As for the experimental part:
as §1

As for `COc1cc(O[C@H]2C(C)(C)[C@H](NC(=O)c3ccc(N4CCC(CN5CCc6c(ccc7c(C8CCC(=O)NC8=O)noc67)C5)CC4)cc3)C2(C)C)ccc1C#N` (some centres unmarked) [Compound 1], in data set [1], the DC50 (in general, the concentration giving 50% degradation) was < 500 nM and the Dmax (usually the largest share of the target that was removed) is > 70%. In addition, the IC50 – broadly, the point on the concentration scale where inhibition reaches its midpoint – in data set [2] is < 2000 nM. Moreover, in data set [3], the “HLM (human) Remaining amount at 60 min %” value is on record as >70%. In addition, the “MLM (mouse) Remaining amount at 60 min %” value in data set [4] is recorded as >70%.
On to `COc1cc(O[C@H]2C(C)(C)[C@H](NC(=O)c3ccc(N4CCC(CN5CCc6c(ccc7c(C8CCC(=O)NC8=O)noc67)C5)CC4)nc3)C2(C)C)ccc1C#N` (some centres unmarked) [Compound 3], for which, in data set [1], the DC50 was < 500 nM and the Dmax is > 70%. Moreover, the IC50 in data set [2] is < 2000 nM. In addition, the “HLM (human) Remaining amount at 60 min %” value in data set [3] is >70%. Further, in data set [4], the “MLM (mouse) Remaining amount at 60 min %” value was >70%.
As to `COc1cc(O[C@H]2C(C)(C)[C@H](NC(=O)c3cnc(N4CCC(CN5CCc6c(ccc7c(C8CCC(=O)NC8=O)noc67)C5)CC4)nc3)C2(C)C)ccc1C#N` (some centres unmarked) [Compound 4], in data set [1], the DC50 was < 500 nM and the Dmax was > 70%. Moreover, in data set [2], the IC50 was < 2000 nM. Besides, the “HLM (human) Remaining amount at 60 min %” value in data set [3] is >70%. For the same molecule, the “MLM (mouse) Remaining amount at 60 min %” value in data set [4] was >70%.
As for `COc1cc(O[C@H]2C(C)(C)[C@H](NC(=O)c3cnc(N4CCC(CN5CCc6c(ccc7c(C8CCC(=O)NC8=O)noc67)C5)CC4)cn3)C2(C)C)ccc1C#N` (some centres unmarked) [Compound 5], in data set [1], the DC50 is < 500 nM and the Dmax is > 70%. In data set [2], the IC50 was < 2000 nM. In data set [3], the “HLM (human) Remaining amount at 60 min %” value is on record as >70%. Besides, the “MLM (mouse) Remaining amount at 60 min %” value in data set [4] was >70%.
As for `COc1cc(O[C@H]2C(C)(C)[C@H](NC(=O)c3ccc(N4CCC(CN5CCc6c(ccc7c(C8CCC(=O)NC8=O)noc67)C5)CC4)nn3)C2(C)C)ccc1C#N` (some centres unmarked) [Compound 6], in data set [1], the DC50 was < 500 nM and the Dmax was > 70%. In data set [4], the “MLM (mouse) Remaining amount at 60 min %” value was >70%.

Source of the values: EP4768489A1, “CYCLOBUTYL-CONTAINING COMPOUNDS” (Chia Tai Tianqing Pharmaceutical Group Co., Ltd., priority 2023, dated 2025).
